Assay results as given in patent publication US8952024B2, “Herbicidal pyrimidone derivatives” (E I du Pont de Nemours and Company, priority 2009, dated 2015).
Where two headings read alike, the source gives them in different places.

Legend:
Type in all cases: in vivo
[1] = tested on: wheat (Triticum aestivum); assay: Test A pre-/postemergence plant response; conditions: Triticum aestivum, 240 h; for plant injury at 125 g/ha: 125 g ai/ha; for plant injury at 500 g/ha: 500 g ai/ha
Outline: (§1)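 Visual injury rating on a 0–100 scale (0 = no effect, 100 = complete control) was made versus untreated controls after about ten days in the greenhouse. Compounds, formulated in a non-phytotoxic solvent mix containing surfactant, were sprayed preemergence onto loam/sand soil and postemergence onto one- to two-leaf plants.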

[2] = tested on: giant foxtail (Setaria faberii); assay: Test A pre-/postemergence plant response; conditions: Setaria faberi, 240 h; for pest or weed control at 125 g/ha: 125 g ai/ha; for pest or weed control at 500 g/ha: 500 g ai/ha
Outline: as §1

[3] = tested on: corn (Zea mays); assay: Test A pre-/postemergence plant response; conditions: Zea mays, 240 h; for Corn plant response rating (crop injury, 0 = no effect, 100 = complete kill) at 125 g/ha: 125 g ai/ha
Outline: as §1

[4] = tested on: barnyardgrass (Echinochloa crus-galli); assay: Test A pre-/postemergence plant response; conditions: Echinochloa crus-galli, 240 h; for pest or weed control at 125 g/ha: 125 g ai/ha; for pest or weed control at 500 g/ha: 500 g ai/ha
Outline: as §1

[5] = tested on: pigweed (Amaranthus retroflexus); assay: Test A pre-/postemergence plant response; conditions: Amaranthus retroflexus, 240 h; for pest or weed control at 125 g/ha: 125 g ai/ha; for pest or weed control at 500 g/ha: 500 g ai/ha
Outline: as §1

[6] = tested on: large crabgrass (Digitaria sanguinalis); assay: Test A pre-/postemergence plant response; conditions: Digitaria sanguinalis, 240 h; for pest or weed control at 125 g/ha: 125 g ai/ha; for pest or weed control at 500 g/ha: 500 g ai/ha
Outline: as §1

[7] = tested on: morningglory (Ipomoea spp.); assay: Test A pre-/postemergence plant response; conditions: Ipomoea, 240 h; for pest or weed control at 125 g/ha: 125 g ai/ha; for pest or weed control at 500 g/ha: 500 g ai/ha
Outline: as §1

[8] = tested on: velvetleaf (Abutilon theophrasti); assay: Test A pre-/postemergence plant response; conditions: Abutilon theophrasti, 240 h; for pest or weed control at 125 g/ha: 125 g ai/ha; for pest or weed control at 500 g/ha: 500 g ai/ha
Outline: as §1

[9] = tested on: winter barley (Hordeum vulgare); assay: Test B postemergence plant response; conditions: Hordeum vulgare, post-emergence, Postemergence, read-out: Plant response rating, Barley
Outline: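 Plants grown in peat/vermiculite medium were sprayed postemergence at 2–18 cm height (1- to 4-leaf stage). After 13–15 days in the greenhouse, response was rated visually against untreated controls on a 0–100 scale (0 no effect, 100 complete control).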

[10] = tested on: barnyardgrass (Echinochloa crus-galli); assay: Test B flooded paddy test
Outline: (§2)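 Ratings are visual, 0–100 (100 = complete control), taken versus untreated controls 13 to 15 days after treatment in the greenhouse. Compound went straight into paddy water held 3 cm above soil, applied to 2-leaf-stage plants of four species.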

[11] = tested on: umbrella sedge (Cyperus difformis); assay: Test B flooded paddy test
Outline: as §2

[12] = tested on: rice (Oryza sativa); assay: Test B flooded paddy test
Outline: as §2

[13] = tested on: ducksalad (Heteranthera limosa); assay: Test B flooded paddy test
Outline: as §2

[14] = pre-emergence, Preemergence, 0 to 100 scale, 0 = no effect, 100 = complete control, read-out: Plant response rating, Wheat
[15] = pre-emergence, Preemergence, 0 to 100 scale, 0 = no effect, 100 = complete control, read-out: Plant response rating, Foxtail, Giant
[16] = pre-emergence, Preemergence, 0 to 100 scale, 0 = no effect, 100 = complete control, read-out: Plant response rating, Barnyardgrass
[17] = pre-emergence, Preemergence, 0 to 100 scale, 0 = no effect, 100 = complete control, read-out: Plant response rating, Pigweed
[18] = pre-emergence, Preemergence, 0 to 100 scale, 0 = no effect, 100 = complete control, read-out: Plant response rating, Crabgrass, Large
[19] = pre-emergence, Preemergence, 0 to 100 scale, 0 = no effect, 100 = complete control, read-out: Plant response rating, Morningglory
[20] = pre-emergence, Preemergence, 0 to 100 scale, 0 = no effect, 100 = complete control, read-out: Plant response rating, Velvetleaf
[21] = Flood, 31 g ai/ha, scale 0 to 100 (0 no effect, 100 complete control)

SMILES: COCCn1c(-c2cc(F)cc(F)c2)ncc(C(=O)C2=C(O)C3CCC(C3)C2=O)c1=O (stereo not shown) [Compound 243, 2-(3,5-difluorophenyl)-5-[(2-hydroxy-4-oxobicyclo[3.2.1]oct-2-en-3-yl)carbonyl]-3-(2-methoxyethyl)-4(3H)-pyrimidinone]
- plant injury at 125 g/ha ([1]; post-emergence, Postemergence, 0 to 100 scale where 0 is no effect and 100 is complete control, read-out: Plant response rating, Wheat): 70%
- plant injury at 500 g/ha ([1]; post-emergence, Postemergence, visual injury, 0 to 100 scale (0 no effect, 100 complete control), approx. ten days, read-out: Wheat plant response rating): 90%
- plant injury at 125 g/ha [1, 14]: 30%
- plant injury at 500 g/ha [1, 14]: 70%
- pest or weed control at 125 g/ha ([2]; post-emergence, Postemergence, 0 to 100 scale where 0 is no effect and 100 is complete control, read-out: Plant response rating, Foxtail, Giant): 100%
- pest or weed control at 500 g/ha ([2]; post-emergence, Postemergence, visual injury, 0 to 100 scale (0 no effect, 100 complete control), approx. ten days, read-out: Foxtail, Giant plant response rating): 100%
- pest or weed control at 125 g/ha [2, 15]: 90%
- pest or weed control at 500 g/ha [2, 15]: 100%
- Corn plant response rating (crop injury, 0 = no effect, 100 = complete kill) at 125 g/ha ([3]; post-emergence, Postemergence, 0 to 100 scale where 0 is no effect and 100 is complete control): 70%
- plant injury at 500 g/ha ([3]; post-emergence, Postemergence, 500 g ai/ha, visual injury, 0 to 100 scale (0 no effect, 100 complete control), approx. ten days, read-out: Corn plant response rating): 90%
- Corn plant response rating (crop injury, 0 = no effect, 100 = complete kill) at 125 g/ha ([3]; pre-emergence, Preemergence, 0 to 100 scale, 0 = no effect, 100 = complete control): 30%
- Corn plant response rating (crop injury, 0 = no effect, 100 = complete kill) at 500 g/ha ([3]; pre-emergence, Preemergence, 500 g ai/ha, 0 to 100 scale, 0 = no effect, 100 = complete control): 60%
- pest or weed control at 125 g/ha ([4]; post-emergence, Postemergence, 0 to 100 scale where 0 is no effect and 100 is complete control, read-out: Plant response rating, Barnyardgrass): 100%
- pest or weed control at 500 g/ha ([4]; post-emergence, Postemergence, visual injury, 0 to 100 scale (0 no effect, 100 complete control), approx. ten days, read-out: Barnyardgrass plant response rating): 100%
- pest or weed control at 125 g/ha [4, 16]: 70%
- pest or weed control at 500 g/ha [4, 16]: 100%
- pest or weed control at 125 g/ha ([5]; post-emergence, Postemergence, 0 to 100 scale where 0 is no effect and 100 is complete control, read-out: Plant response rating, Pigweed): 100%
- pest or weed control at 500 g/ha ([5]; post-emergence, Postemergence, visual injury, 0 to 100 scale (0 no effect, 100 complete control), approx. ten days, read-out: Pigweed plant response rating): 100%
- pest or weed control at 125 g/ha [5, 17]: 100%
- pest or weed control at 500 g/ha [5, 17]: 100%
- pest or weed control at 125 g/ha ([6]; post-emergence, Postemergence, 0 to 100 scale where 0 is no effect and 100 is complete control, read-out: Plant response rating, Crabgrass, Large): 90%
- pest or weed control at 500 g/ha ([6]; post-emergence, Postemergence, visual injury, 0 to 100 scale (0 no effect, 100 complete control), approx. ten days, read-out: Crabgrass, Large plant response rating): 90%
- pest or weed control at 125 g/ha [6, 18]: 100%
- pest or weed control at 500 g/ha [6, 18]: 100%
- pest or weed control at 125 g/ha ([7]; post-emergence, Postemergence, 0 to 100 scale where 0 is no effect and 100 is complete control, read-out: Plant response rating, Morningglory): 100%
- pest or weed control at 500 g/ha ([7]; post-emergence, Postemergence, visual injury, 0 to 100 scale (0 no effect, 100 complete control), approx. ten days, read-out: Morningglory plant response rating): 100%
- pest or weed control at 125 g/ha [7, 19]: 70%
- pest or weed control at 500 g/ha [7, 19]: 90%
- pest or weed control at 125 g/ha ([8]; post-emergence, Postemergence, 0 to 100 scale where 0 is no effect and 100 is complete control, read-out: Plant response rating, Velvetleaf): 100%
- pest or weed control at 500 g/ha ([8]; post-emergence, Postemergence, visual injury, 0 to 100 scale (0 no effect, 100 complete control), approx. ten days, read-out: Velvetleaf plant response rating): 100%
- pest or weed control at 125 g/ha [8, 20]: 90%
- pest or weed control at 500 g/ha [8, 20]: 100%
- plant injury at 31 g/ha ([9]; 31 g ai/ha, 0 to 100 scale (0 no effect, 100 complete control)): 60%
- plant injury at 62 g/ha ([9]; 62 g ai/ha, scale 0 to 100 (0 no effect, 100 complete control)): 90%
- plant injury at 125 g/ha ([9]; 125 g ai/ha, scale 0 (no effect) to 100 (complete control), 13 to 15 days): 95%
- plant injury at 250 g/ha ([9]; 250 g ai/ha, scale 0 to 100 (0 no effect, 100 complete control), 13 to 15 days): 95%
- pest or weed control at 250 g/ha ([10]; Echinochloa crus-galli, 360 h, 250 g ai/ha, flooded paddy test, visual rating on 0 to 100 scale (0 no effect, 100 complete control) after 13 to 15 days, read-out: Plant response rating, Flood, Barnyardgrass): 85%
- pest or weed control at 62 g/ha ([10]; Echinochloa crus-galli, 360 h, Flood (flooded paddy test), 62 g ai/ha, scale of 0 to 100 where 0 is no effect and 100 is complete control, 13 to 15 days, read-out: Plant response rating, Barnyardgrass): 30%
- pest or weed control at 125 g/ha ([10]; Echinochloa crus-galli, 360 h, Flood (flooded paddy test), 125 g ai/ha, scale 0 to 100, 0 is no effect, 100 is complete control, 13 to 15 days, read-out: Plant response rating, Barnyardgrass): 75%
- Barnyardgrass plant response rating [10, 21]: 0
- pest or weed control at 250 g/ha ([11]; Cyperus difformis, 360 h, 250 g ai/ha, flooded paddy test, visual rating on 0 to 100 scale (0 no effect, 100 complete control) after 13 to 15 days, read-out: Plant response rating, Flood, Sedge, Umbrella): 100%
- pest or weed control at 62 g/ha ([11]; Cyperus difformis, 360 h, Flood (flooded paddy test), 62 g ai/ha, scale of 0 to 100 where 0 is no effect and 100 is complete control, 13 to 15 days, read-out: Plant response rating, Sedge, Umbrella): 90%
- pest or weed control at 125 g/ha ([11]; Cyperus difformis, 360 h, Flood (flooded paddy test), 125 g ai/ha, scale 0 to 100, 0 is no effect, 100 is complete control, 13 to 15 days, read-out: Plant response rating, Sedge, Umbrella): 100%
- Sedge, Umbrella plant response rating [11, 21]: 0
- Rice plant response rating [12, 21]: 45
- plant injury at 250 g/ha ([12]; Oryza sativa, 250 g ai/ha, flooded paddy test, visual rating on 0 to 100 scale (0 no effect, 100 complete control) after 13 to 15 days, read-out: Plant response rating, Flood, Rice): 75%
- plant injury at 62 g/ha ([12]; Oryza sativa, Flood (flooded paddy test), 62 g ai/ha, scale of 0 to 100 where 0 is no effect and 100 is complete control, 13 to 15 days, read-out: Plant response rating, Rice): 60%
- plant injury at 125 g/ha ([12]; Oryza sativa, Flood (flooded paddy test), 125 g ai/ha, scale 0 to 100, 0 is no effect, 100 is complete control, 13 to 15 days, read-out: Plant response rating, Rice): 95%
- Ducksalad plant response rating [13, 21]: 0
- pest or weed control at 250 g/ha ([13]; Heteranthera limosa, 360 h, 250 g ai/ha, flooded paddy test, visual rating on 0 to 100 scale (0 no effect, 100 complete control) after 13 to 15 days, read-out: Plant response rating, Flood, Ducksalad): 100%
- pest or weed control at 62 g/ha ([13]; Heteranthera limosa, 360 h, Flood (flooded paddy test), 62 g ai/ha, scale of 0 to 100 where 0 is no effect and 100 is complete control, 13 to 15 days, read-out: Plant response rating, Ducksalad): 85%
- pest or weed control at 125 g/ha ([13]; Heteranthera limosa, 360 h, Flood (flooded paddy test), 125 g ai/ha, scale 0 to 100, 0 is no effect, 100 is complete control, 13 to 15 days, read-out: Plant response rating, Ducksalad): 100%
